Measured values: patent US9101562B2, “Additives for chlorine dioxide-containing compositions” (BASF CORPORATION, priority 2010, dated 2015)
Read-outs that look alike come from different tables or passages of the source. Values belong to the compound of their own block, whether it stands above or below them. Where a SMILES comes first, the peptide text is derived from it.

Assay: Chlorine dioxide compatibility: ClO2 decrease in 200 ppm ClO2 test samples containing an additive (UV/Vis absorption or titration)
Assay type: physicochemical
Conditions: for Chlorine dioxide (ppm): 200 ppm ClO2 composition with sucralose 0.5 wt. %
[1] = Table 2, 200 ppm ClO2 test sample, single additive at listed wt. %, interpolated to 8 hours
[2] = Table 2, […], interpolated to 8 hours
[3] = FIG. 1A, 200 ppm ClO2, single sweetener at 0.5 wt. %
[4] = Table 3, 200 ppm ClO2 test sample, single additive at listed wt. %, interpolated to 8 hours
[5] = Table 3, […], interpolated to 8 hours

ClO2 decrease @ 8 hrs [1]: 1%
Compound: CC(C)[C@@H]1CC[C@@H](C)C[C@H]1O [Comp. 1, L-menthol]

ClO2 decrease @ 8 hrs [1]: 2%
Compound: CC12CCC(CC1=O)C2(C)C (stereo not shown) [Comp. 3, Camphor]

Compound: O=Cc1ccccc1 [compound 2, Benzaldehyde]
ClO2 decrease @ 8 hrs [2]: 1%

ClO2 decrease @ 8 hrs [1]: 4%
Compound: CC(C)[C@@H]1CC[C@@H](C)CC1=O [compound 4, Menthone]

ClO2 decrease @ 8 hrs [1]: 5%
Compound: CCNC(=O)C1CC(C)CCC1C(C)C (stereo not shown) [compound 5, Ethyl Menthane Carboxamide]

ClO2 decrease @ 8 hrs [1]: 13%
Compound: CC12CCC(CC1)C(C)(C)O2 [compound 6, Eucalyptol]

ClO2 decrease @ 8 hrs [1]: 2%
Compound: COC(=O)[C@H](Cc1ccccc1)NC(=O)[C@@H](N)CC(=O)O [compound 7, Aspartame] (H-Asp-Phe-OMe)
chlorine dioxide concentration versus time behaviour [3]: steep immediate declines in chlorine dioxide concentration, followed by much more gradual declines

Compound: O.O.O=C1NS(=O)(=O)c2ccccc21.[Na] [compound 9, Sodium saccharin Dihydrate]
ClO2 decrease @ 8 hrs: 3% | chlorine dioxide concentration versus time behaviour: steep immediate declines in chlorine dioxide concentration, followed by much more gradual declines

ClO2 decrease @ 8 hrs [1]: 9% | chlorine dioxide present at 8 hours (interpolation of the data at 0.88 hours and 15.35 hours): 166.5 ppm | Chlorine dioxide (ppm) (time 0.25 hours): 183 ppm | Chlorine dioxide (ppm) (time 0.88 hours): 168 ppm | Chlorine dioxide (ppm) (time 15.35 hours): 165 ppm | Chlorine dioxide (ppm) (time 22.62 hours): 165 ppm | Chlorine dioxide (ppm) (time 70.58 hours): 163 ppm
Compound: OC[C@H]1O[C@H](O[C@]2(CCl)O[C@H](CCl)[C@@H](O)[C@@H]2O)[C@H](O)[C@@H](O)[C@H]1Cl [compound 10, Sucralose]
chlorine dioxide concentration versus time behaviour [3]: steep immediate declines in chlorine dioxide concentration, followed by much more gradual declines

ClO2 decrease @ 8 hrs [1]: 8%
Compound: OCc1ccccc1 [compound 12, Benzyl Alcohol]

Compound: CC(O)CO (stereo not shown) [compound 13, Propylene Glycol]
ClO2 decrease @ 8 hrs [2]: 1%

ClO2 decrease @ 8 hrs [1]: 1%
Compound: OCC(O)CO [compound 15, Glycerol]

Compound: CCOC(C)=O [compound 16, Ethyl Acetate]
ClO2 decrease @ 8 hrs: 3%

ClO2 decrease @ 8 hrs [1]: 4%
Compound: CCO [compound 17, Ethanol]

Compound: CC(C)=O [compound 19, Acetone]
ClO2 decrease @ 8 hrs: 0.04%

Compound: N[C@@H](CCC(=O)O)C(=O)O [compound 21, l-Glutamic Acid]
ClO2 decrease @ 8 hrs [2]: 1%

ClO2 decrease @ 8 hrs [4]: 100%
Compound: O=C1O[C@H]([C@@H](O)CO)C(O)=C1O [compound 28, Ascorbic Acid]

Compound: C/C=C/C=C/C(=O)O [compound 29, Sorbic Acid]
ClO2 decrease @ 8 hrs [4]: 100%

Compound: COc1ccc(C=O)cc1OC [compound 30, Methyl Vanillin]
ClO2 decrease @ 8 hrs: 100%

Compound: CC=Cc1ccc(OC)cc1 [compound 31, Anethole]
ClO2 decrease @ 8 hrs [5]: 100%

Compound: CC1=CC(=O)NS(=O)(=O)O1 [compound 32, Acesulfame Potassium]
ClO2 decrease @ 8 hrs: 100% | chlorine dioxide concentration versus time behaviour: consumed all of the chlorine dioxide within about the first hour

Compound: C/C=C/C=C/C(=O)[O-].[K+] [compound 35, Potassium Sorbate]
ClO2 decrease @ 8 hrs: 99%

Compound: NCCO [compound 38, Monoethanolamine]
ClO2 decrease @ 8 hrs: 92%

Compound: t-Cinnamaldehyde [compound 26]
ClO2 decrease @ 8 hrs [5]: 37%
